Test results from article PMC11079024, “Identification of a family of species-selective complex I inhibitors as potential anthelmintics” (Nature Communications, 2024).
Where “and” joins values, the source holds several entries; their conditions need not be identical. Equal values may be shown once. Read-outs that look alike come from different tables or passages of the source.

What was measured:
[1] = target: C. elegans (N2) complex I (NADH:ubiquinone oxidoreductase) (Caenorhabditis elegans, UniProt P24887+Q93873+Q94360); assay: biochemical; assay type: biochemical
Procedure, shortened: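 Compounds were tested against freeze-thawed isolated mitochondria (0.2 mg/mL protein). NADH:decylubiquinone activity was monitored via DCIP absorbance at 600 nm, and the initial linear slope was normalised to solvent controls.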

[2] = target: B. taurus (heart) complex I (Bos taurus, UniProt P03887+P17694+P42026); assay: biochemical; assay type: biochemical; conditions: for IC50: read-out: B. taurus Complex I IC50
Procedure, shortened: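 Complex I activity followed as DCIP reduction (600 nm, 30 s reads, 15 min) with 80 μM NADH and 60 μM decylubiquinone in 25 mM KPi pH 7.5 containing 2 μM antimycin A and 2 mM KCN. Freeze-thawed mouse or bovine heart mitochondria at 0.2 mg/mL; initial-rate percent of solvent control, single-point 100 μM or dose-response.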

[3] = wild-type C. elegans, individual Rep1-Rep4, read-out: percent in vitro complex I activity relative to solvent control, single replicates
[4] = wild-type C. elegans, mean of Rep1-4, read-out: percent in vitro complex I activity relative to solvent control, Mean
[5] = N2 wild-type mitochondria, Fig. 4d data set, mean of replicates, read-out: percent (%) in vitro complex I activity relative to solvent control
[6] = wild-type C. elegans mitochondria, mean of replicates, read-out: percent (%) in vitro complex I activity relative to solvent control
[7] = C. elegans mitochondria, Mean of replicates, read-out: in vitro complex I activity relative to solvent control
[8] = C. elegans mitochondria, single replicate, read-out: in vitro complex I activity relative to solvent control
[9] = C. elegans mitochondria, Mean, read-out: in vitro complex I activity relative to solvent control
[10] = B. taurus (heart) mitochondria, mean of replicates, read-out: percent (%) in vitro complex I activity relative to solvent control
[11] = B. taurus (heart) mitochondria, single replicate, read-out: percent (%) in vitro complex I activity relative to solvent control
[12] = B. taurus (heart) mitochondria, Mean of replicates, read-out: in vitro complex I activity relative to solvent control
[13] = B. taurus (heart) mitochondria, single replicate, read-out: in vitro complex I activity relative to solvent control

Sequence of C. elegans (N2) complex I (NADH:ubiquinone oxidoreductase) (Q94360 17-199): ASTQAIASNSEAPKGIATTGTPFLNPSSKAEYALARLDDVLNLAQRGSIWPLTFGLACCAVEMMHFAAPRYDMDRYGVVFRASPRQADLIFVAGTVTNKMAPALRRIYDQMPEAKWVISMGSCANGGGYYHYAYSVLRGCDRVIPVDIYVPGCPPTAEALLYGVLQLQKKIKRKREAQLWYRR
Sequence of C. elegans (N2) complex I (NADH:ubiquinone oxidoreductase) (P24887 whole entry): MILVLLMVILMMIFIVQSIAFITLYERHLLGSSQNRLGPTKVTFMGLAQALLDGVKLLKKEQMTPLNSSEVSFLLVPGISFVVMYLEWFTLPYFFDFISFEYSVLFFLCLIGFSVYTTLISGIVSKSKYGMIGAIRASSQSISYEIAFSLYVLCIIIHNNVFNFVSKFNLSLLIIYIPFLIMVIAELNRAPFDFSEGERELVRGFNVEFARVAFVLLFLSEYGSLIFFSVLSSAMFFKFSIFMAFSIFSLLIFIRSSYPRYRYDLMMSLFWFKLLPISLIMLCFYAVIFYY
Sequence of C. elegans (N2) complex I (NADH:ubiquinone oxidoreductase) (Q93873 31-482): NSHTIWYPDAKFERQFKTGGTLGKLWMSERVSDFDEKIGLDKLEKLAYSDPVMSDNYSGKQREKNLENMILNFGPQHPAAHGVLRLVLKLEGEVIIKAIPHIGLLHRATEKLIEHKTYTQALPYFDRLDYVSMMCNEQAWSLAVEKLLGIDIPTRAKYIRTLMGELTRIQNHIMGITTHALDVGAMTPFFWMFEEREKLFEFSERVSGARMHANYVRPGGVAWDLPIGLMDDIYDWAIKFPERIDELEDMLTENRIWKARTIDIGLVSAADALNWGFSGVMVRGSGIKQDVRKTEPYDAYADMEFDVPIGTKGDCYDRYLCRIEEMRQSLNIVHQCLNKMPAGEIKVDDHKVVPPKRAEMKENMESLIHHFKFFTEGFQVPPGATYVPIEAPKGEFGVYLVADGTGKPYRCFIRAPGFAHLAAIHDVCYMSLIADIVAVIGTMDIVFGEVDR
Sequence of B. taurus (heart) complex I (P03887 whole entry): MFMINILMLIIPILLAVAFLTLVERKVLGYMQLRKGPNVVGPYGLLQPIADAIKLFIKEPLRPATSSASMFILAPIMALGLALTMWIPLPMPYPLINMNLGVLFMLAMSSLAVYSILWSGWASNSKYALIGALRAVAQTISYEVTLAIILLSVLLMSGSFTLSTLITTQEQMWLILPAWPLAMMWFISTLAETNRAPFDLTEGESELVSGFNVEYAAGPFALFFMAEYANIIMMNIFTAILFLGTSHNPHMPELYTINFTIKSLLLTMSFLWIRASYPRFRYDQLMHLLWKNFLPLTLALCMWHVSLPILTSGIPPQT
Sequence of B. taurus (heart) complex I (P17694 34-463): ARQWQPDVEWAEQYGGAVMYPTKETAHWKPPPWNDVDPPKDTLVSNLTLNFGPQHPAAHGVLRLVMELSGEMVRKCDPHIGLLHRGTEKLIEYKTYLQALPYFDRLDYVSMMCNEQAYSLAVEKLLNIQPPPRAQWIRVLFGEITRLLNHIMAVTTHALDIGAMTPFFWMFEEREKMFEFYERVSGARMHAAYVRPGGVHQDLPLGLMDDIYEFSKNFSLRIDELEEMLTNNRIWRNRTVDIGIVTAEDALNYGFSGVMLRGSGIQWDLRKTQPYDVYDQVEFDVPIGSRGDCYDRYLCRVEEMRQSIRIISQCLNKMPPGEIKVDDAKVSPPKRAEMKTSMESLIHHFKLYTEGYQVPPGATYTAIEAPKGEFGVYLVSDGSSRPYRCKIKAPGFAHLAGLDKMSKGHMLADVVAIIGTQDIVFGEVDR
Sequence of B. taurus (heart) complex I (P42026 38-216): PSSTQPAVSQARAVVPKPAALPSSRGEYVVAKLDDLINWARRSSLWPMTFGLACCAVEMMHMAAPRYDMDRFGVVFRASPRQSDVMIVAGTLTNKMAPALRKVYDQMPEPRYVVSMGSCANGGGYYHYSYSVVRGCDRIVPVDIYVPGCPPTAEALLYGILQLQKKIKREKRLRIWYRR

## CC(C)Cc1ccc(C(C)c2nc3ccccc3n2C)cc1 (stereo not shown) [NPD8790]
[1]; [3]
  remaining activity at 0.0001 µM: 100%
  remaining activity at 0.0005 µM: 105%
  remaining activity at 0.001 µM: 99%
  remaining activity at 0.0025 µM: 107%
  remaining activity at 0.005 µM: 102%
  remaining activity at 0.025 µM: 102%
  remaining activity at 0.125 µM: 95.7%
  remaining activity at 0.313 µM: 86.3%
[1]; [4]
  remaining activity at 0.0001 µM: 96.6%
  remaining activity at 0.0005 µM: 96.5%
  remaining activity at 0.001 µM: 92.6%
  remaining activity at 0.0025 µM: 98.8%
  remaining activity at 0.005 µM: 95.9%
  remaining activity at 0.013 µM: 106%
  remaining activity at 0.025 µM: 98.2%
  remaining activity at 0.063 µM: 95.6%
  remaining activity at 0.125 µM: 92%
  remaining activity at 0.313 µM: 81.9%
  remaining activity at 0.625 µM: 83.7%
  remaining activity at 1.5 µM: 70.3%
  remaining activity at 3 µM: 49.5%
  remaining activity at 15 µM: 8.01%
  remaining activity at 37.5 µM: 3.5%
[1]; [5]
  remaining activity at 0.125 µM: 96.6%
  remaining activity at 0.313 µM: 90.9%
  remaining activity at 0.625 µM: 93.2%
  remaining activity at 1.5 µM: 78.9%
  remaining activity at 3 µM: 61.6%
  remaining activity at 15 µM: 8.9%
  remaining activity at 37.5 µM: 5.01%
[1]; N2 wild-type mitochondria, Fig. 4d data set, single replicate, read-out: percent (%) in vitro complex I activity relative to solvent control
  remaining activity at 0.125 µM: 94.3%
[1]; [6]
  remaining activity at 0.125 µM: 102%
  remaining activity at 0.313 µM: 93%
  remaining activity at 0.625 µM: 87%
  remaining activity at 1.5 µM: 72.5%
  remaining activity at 3 µM: 52.5%
  remaining activity at 15 µM: 7.83%
  remaining activity at 37.5 µM: 3.88%
[1]; wild-type C. elegans mitochondria, single replicate, read-out: percent (%) in vitro complex I activity relative to solvent control
  remaining activity at 0.125 µM: 95.7%
[1]; 75 µM, wild-type C. elegans, mean of Rep1-4, read-out: percent in vitro complex I activity relative to solvent control, Mean
  remaining activity at 75 µM: 13.3%
[1]; 100 µM compound, relative to solvent control, mean (SEM), read-out: % Activity Complex I
  activity at 100 µM: 5.34%
[1]; 100 μM of NPD compound, C. elegans mitochondria, individual biological replicates, 100 µM
  Percent in vitro activity, Complex I (single replicate Rep1-Rep4): 0.000% and 4.423% and 13.672% and 3.252%
[1]; 100 μM of NPD compound, C. elegans mitochondria, mean of four biological replicates, read-out: Percent in vitro activity, Complex I (Mean)
  activity at 100 µM: 5.34%
[1]; C. elegans mitochondria, 0.06 µM, Mean of replicates, read-out: in vitro complex I activity relative to solvent control
  remaining activity at 0.06 µM: 109%
[1]; [7]
  remaining activity at 0.13 µM: 102%
  remaining activity at 0.313 µM: 93%
  remaining activity at 0.625 µM: 87%
  remaining activity at 1.5 µM: 72.5%
  remaining activity at 3 µM: 52.5%
  remaining activity at 15 µM: 7.83%
  remaining activity at 37.5 µM: 3.88%
[1]; [8]
  remaining activity at 0.13 µM: 112%
  remaining activity at 0.0005 µM: 105%
  remaining activity at 0.0025 µM: 107%
  remaining activity at 0.025 µM: 102%
  remaining activity at 0.125 µM: 95.7%
[1]; [9]
  remaining activity at 0.0001 µM: 104%
  remaining activity at 0.0005 µM: 106%
  remaining activity at 0.001 µM: 104%
  remaining activity at 0.0025 µM: 109%
  remaining activity at 0.005 µM: 107%
  remaining activity at 0.013 µM: 115%
  remaining activity at 0.025 µM: 108%
  remaining activity at 0.063 µM: 109%
  remaining activity at 0.125 µM: 102%
  remaining activity at 0.313 µM: 93%
  remaining activity at 0.625 µM: 87%
  remaining activity at 1.5 µM: 72.5%
[2]; 0.125 µM, B. taurus (heart) mitochondria, mean of replicates, read-out: percent (%) in vitro complex I activity relative to solvent control
  remaining activity at 0.125 µM: 101%
[2]; [10]
  remaining activity at 0.313 µM: 112%
  remaining activity at 0.625 µM: 103%
  remaining activity at 1.5 µM: 107%
  remaining activity at 3 µM: 104%
  remaining activity at 15 µM: 79.4%
  remaining activity at 37.5 µM: 38%
  remaining activity at 75 µM: 13.6%
[2]; [11]
  remaining activity at 0.313 µM: 118%
  remaining activity at 0.625 µM: 96.1%
  remaining activity at 37.5 µM: 38.8%
[2]; B. taurus (heart) mitochondria, 0.06 µM, Mean of replicates, read-out: in vitro complex I activity relative to solvent control
  remaining activity at 0.06 µM: 103%
[2]; B. taurus (heart) mitochondria, 0.13 µM, Mean of replicates, read-out: in vitro complex I activity relative to solvent control
  remaining activity at 0.13 µM: 101%
[2]; [12]
  remaining activity at 0.313 µM: 112%
  remaining activity at 0.625 µM: 103%
  remaining activity at 1.5 µM: 107%
  remaining activity at 3 µM: 104%
  remaining activity at 15 µM: 79.4%
  remaining activity at 37.5 µM: 38%
  remaining activity at 75 µM: 13.6%
[2]; [13]
  remaining activity at 0.313 µM: 118%
  remaining activity at 0.625 µM: 96.1%
  remaining activity at 37.5 µM: 38.8%
[2]; B. taurus heart mitochondria
  IC50: 27.2 µM
[2]; B. taurus, dose 0.0001 µM, Mean of replicates, read-out: Complex I activity, dose-response data
  activity at 0.0001 µM: 104%
[2]; B. taurus, dose 0.0001 µM, individual replicates (Rep)
  Complex I activity, dose-response data: 106.495 and 102.513 and 108.647
[2]; B. taurus, dose 0.0001 µM, individual replicates (Rep), read-out: Complex I activity, dose-response data
  activity at 0.0001 µM: 97.6%
[2]; B. taurus, dose 0.0005 µM, Mean of replicates, read-out: Complex I activity, dose-response data
  activity at 0.0005 µM: 101%
[2]; B. taurus, dose 0.0005 µM, individual replicates (Rep)
  Complex I activity, dose-response data: 104.650 and 93.657 and 105.597
[2]; B. taurus, dose 0.0005 µM, individual replicates (Rep), read-out: Complex I activity, dose-response data
  activity at 0.0005 µM: 99.4%
[2]; B. taurus, dose 0.001 µM, Mean of replicates, read-out: Complex I activity, dose-response data
  activity at 0.001 µM: 105%
[2]; B. taurus, dose 0.001 µM, individual replicates (Rep)
  Complex I activity, dose-response data: 106.670 and 104.354 and 107.534
[2]; B. taurus, dose 0.001 µM, individual replicates (Rep), read-out: Complex I activity, dose-response data
  activity at 0.001 µM: 103%
[2]; B. taurus, dose 0.0025 µM, Mean of replicates, read-out: Complex I activity, dose-response data
  activity at 0.0025 µM: 104%
[2]; B. taurus, dose 0.0025 µM, individual replicates (Rep)
  Complex I activity, dose-response data: 99.492 and 117.130 and 91.896 and 108.464
[2]; B. taurus, dose 0.005 µM, Mean of replicates, read-out: Complex I activity, dose-response data
  activity at 0.005 µM: 114%
[2]; B. taurus, dose 0.005 µM, individual replicates (Rep)
  Complex I activity, dose-response data: 112.174 and 127.690 and 101.653 and 112.765
[2]; B. taurus, dose 0.013 µM, Mean of replicates, read-out: Complex I activity, dose-response data
  activity at 0.013 µM: 99.8%
[2]; B. taurus, dose 0.013 µM, individual replicates (Rep)
  Complex I activity, dose-response data: 108.528 and 89.880 and 103.599
[2]; B. taurus, dose 0.013 µM, individual replicates (Rep), read-out: Complex I activity, dose-response data
  activity at 0.013 µM: 97.2%
[2]; B. taurus, dose 0.025 µM, Mean of replicates, read-out: Complex I activity, dose-response data
  activity at 0.025 µM: 101%
[2]; B. taurus, dose 0.025 µM, individual replicates (Rep)
  Complex I activity, dose-response data: 88.122 and 92.313 and 109.456
[2]; B. taurus, dose 0.063 µM, Mean of replicates, read-out: Complex I activity, dose-response data
  activity at 0.063 µM: 103%
[2]; B. taurus, dose 0.063 µM, individual replicates (Rep)
  Complex I activity, dose-response data: 101.538 and 112.181 and 91.251 and 105.094
[2]; B. taurus, dose 0.125 µM, Mean of replicates, read-out: Complex I activity, dose-response data
  activity at 0.125 µM: 101%
[2]; B. taurus, dose 0.125 µM, individual replicates (Rep)
  Complex I activity, dose-response data: 111.398 and 110.709 and 87.488 and 92.420
[2]; B. taurus, dose 0.313 µM, Mean of replicates, read-out: Complex I activity, dose-response data
  activity at 0.313 µM: 112%
[2]; B. taurus, dose 0.313 µM, individual replicates (Rep)
  Complex I activity, dose-response data: 118.464 and 105.228 and 106.985
[2]; B. taurus, dose 0.313 µM, individual replicates (Rep), read-out: Complex I activity, dose-response data
  activity at 0.313 µM: 118%
[2]; B. taurus, dose 0.625 µM, Mean of replicates, read-out: Complex I activity, dose-response data
  activity at 0.625 µM: 103%
[2]; B. taurus, dose 0.625 µM, individual replicates (Rep)
  Complex I activity, dose-response data: 106.273 and 97.568 and 112.424
[2]; B. taurus, dose 0.625 µM, individual replicates (Rep), read-out: Complex I activity, dose-response data
  activity at 0.625 µM: 96.1%
[2]; B. taurus, dose 1.5 µM, Mean of replicates, read-out: Complex I activity, dose-response data
  activity at 1.5 µM: 107%
[2]; B. taurus, dose 1.5 µM, individual replicates (Rep)
  Complex I activity, dose-response data: 108.615 and 114.555 and 94.027 and 109.488
[2]; B. taurus, dose 3 µM, Mean of replicates, read-out: Complex I activity, dose-response data
  activity at 3 µM: 104%
[2]; B. taurus, dose 3 µM, individual replicates (Rep)
  Complex I activity, dose-response data: 105.743 and 114.475 and 92.946 and 103.733
[2]; B. taurus, dose 15 µM, Mean of replicates, read-out: Complex I activity, dose-response data
  activity at 15 µM: 79.4%
[2]; B. taurus, dose 15 µM, individual replicates (Rep)
  Complex I activity, dose-response data: 82.876 and 90.607 and 69.676 and 74.384
[2]; B. taurus, dose 37.5 µM, Mean of replicates, read-out: Complex I activity, dose-response data
  activity at 37.5 µM: 38%
[2]; B. taurus, dose 37.5 µM, individual replicates (Rep)
  Complex I activity, dose-response data: 49.756 and 32.716 and 30.663
[2]; B. taurus, dose 37.5 µM, individual replicates (Rep), read-out: Complex I activity, dose-response data
  activity at 37.5 µM: 38.8%
[2]; B. taurus, dose 75 µM, Mean of replicates, read-out: Complex I activity, dose-response data
  activity at 75 µM: 13.6%
[2]; B. taurus, dose 75 µM, individual replicates (Rep)
  Complex I activity, dose-response data: 6.165 and 16.790 and 16.865 and 14.475
[2]; heart mitochondria
  IC50: 27.2 µM
[2]; log10 of IC50 in µM, B. taurus mitochondria
  Log IC50 B. taurus complex I: 1.43 µM
